Each structure is given as a SMILES string. pIC50: −log10 of the molar value. Where “and” joins values, the source holds several entries; their conditions need not be identical. Equal entries are not always repeated.

For data set [1], the target named is Mitogen-activated protein kinase 14 (Homo sapiens, UniProt Q16539). Kind of data set: Inhibition of p38alpha assessed as phosphorylation FITC-labeled Hsp27 after 60 mins by fluorescence based cascade assay.
In another data set the test system is PBMC. Kind of data set: Antiinflammatory activity in human PBMC assessed as inhibition of LPS-induced TNFalpha release pretreated for 1 hr before LPS treatment measured after 18 hrs. The format is functional, cell-based.
Data set [2] is described as follows: (§1) Metabolic stability in rat liver microsomes assessed as compound remaining at 2 uM after 45 mins by LC/MS analysis in presence of NADPH. The format is ADME, Microsome. Particulars: liver microsomes, read-out: Stability.
Data set [3] has as its system Rattus norvegicus. Kind of data set: Antiinflammatory activity in fasted Lewis rat assessed as inhibition of LPS-induced TNFalpha production at 5 mg/kg, po administered 4 hrs prior LPS challenge measured after 90 mins by ELISA. It is filed as functional. Particulars: for inhibition in vivo at 5 mg/kg: Rattus norvegicus, Lewis, po. In general terms: In an ELISA, binding on a coated surface is turned into a signal by an enzyme label.

Data set [4] is described as follows: (§2) Metabolic stability in human liver microsomes assessed as compound remaining at 2 uM after 45 mins by LC/MS analysis in presence of NADPH. The format is ADME, Microsome. Particulars: liver microsomes, read-out: Stability. For orientation: Microsomes from liver hold many membrane-bound enzymes, among them those of drug oxidation.
The subject of data set [5] is Rattus norvegicus. Kind of data set: Antiarthritic activity in Lewis rat assessed as inhibition of streptococcal cell wall-induced paw swelling at 60 mg/kg/day, po administered on day 10 of streptococcal cell wall challenge continued until day 21 by plethysmometer. It is filed as functional.
Data set [6] in a line: Oral bioavailability in Sprague-Dawley rat at 15 mg/kg administered as solution. It is filed as ADME, organism-based. Particulars: in vivo.
Data set [7] is described as follows: Oral bioavailability in cynomolgus monkey administered as solution. Particulars: in vivo. It is filed as ADME, organism-based, Macaca fascicularis.
Data set [8] has as its system Liver microsomes. The data set is described as §1. It is filed as ADME, Microsome. Particulars: microsomes, 0.75 h, 2 µM.
A short description of data set [9]: Half life in Sprague-Dawley rat administered as crystalline form. The format is ADME, organism-based. Particulars: in vivo.
Data set [10] can be described thus: Oral bioavailability in Sprague-Dawley rat administered as crystalline form. The conditions noted are these: in vivo. The format is ADME, organism-based.
A short description of data set [11]: Apparent permeability across apical to basolateral side in human Caco2 cells at 100 uM. The format is ADME, cell-based. Particulars: Caco-2. A general note: Caco-2 monolayers are a common model of the intestinal barrier.
Data set [12] in a line: Oral bioavailability in Beagle dog administered as solution. The format is ADME, organism-based, Canis lupus familiaris. Particulars: in vivo.
Data set [13] in a line: Solubility of the compound in phosphate buffer at pH 7. It is filed as physicochemical.
Data set [14] is described as follows: Apparent permeability across apical to basolateral side in human Caco2 cells at 1 uM. The format is ADME, cell-based. The conditions noted are these: Caco-2.
For data set [15], the system named is Liver microsomes. The data set is described as §2. It is filed as ADME, Microsome. Particulars: microsomes, 0.75 h, 2 µM.
Data set [16] is described as follows: Oral bioavailability in Sprague-Dawley rat at 2 mg/kg administered as solution. The format is ADME, organism-based. Particulars: in vivo.
A short description of data set [17]: Half life in Beagle dog administered as crystalline form. Particulars: in vivo. The format is ADME, organism-based, Canis lupus familiaris.
Data set [18] can be described thus: Half life in cynomolgus monkey administered as crystalline form. It is filed as ADME, organism-based, Macaca fascicularis. The conditions noted are these: in vivo.
The subject of data set [19] is Rattus norvegicus. The data set can be described thus: Antiarthritic activity in Lewis rat assessed as inhibition of streptococcal cell wall-induced paw swelling at 2 mg/kg/day, po administered on day 10 of streptococcal cell wall challenge continued until day 21 by plethysmometer. The format is functional.
A short description of data set [20]: Oral bioavailability in cynomolgus monkey administered as crystalline form. The format is ADME, organism-based, Macaca fascicularis. The conditions noted are these: in vivo.
In data set [21] the test system is Rattus norvegicus. The data set can be described thus: Antiarthritic activity in Lewis rat assessed as inhibition of streptococcal cell wall-induced paw swelling at 30 mg/kg/day, po administered on day 10 of streptococcal cell wall challenge continued until day 21 by plethysmometer. The format is functional.
The subject of data set [22] is Rattus norvegicus. Kind of data set: Antiarthritic activity in Lewis rat assessed as inhibition of streptococcal cell wall-induced paw swelling at 10 mg/kg/day, po administered on day 10 of streptococcal cell wall challenge continued until day 21 by plethysmometer. It is filed as functional.

Sequence of Mitogen-activated protein kinase 14 (Q16539 whole entry): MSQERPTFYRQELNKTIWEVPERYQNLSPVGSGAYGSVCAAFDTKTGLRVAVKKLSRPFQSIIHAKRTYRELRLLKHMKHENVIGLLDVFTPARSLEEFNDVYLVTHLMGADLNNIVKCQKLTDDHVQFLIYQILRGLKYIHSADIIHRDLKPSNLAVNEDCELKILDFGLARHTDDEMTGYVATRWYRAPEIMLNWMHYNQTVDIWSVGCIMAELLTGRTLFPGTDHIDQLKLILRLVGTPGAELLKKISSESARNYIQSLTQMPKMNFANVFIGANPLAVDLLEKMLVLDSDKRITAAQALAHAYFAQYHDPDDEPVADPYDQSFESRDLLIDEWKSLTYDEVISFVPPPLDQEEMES

Usually pIC50 stands for the negative decadic logarithm of the IC50, by convention in mol/L. For `CNC(=O)c1ccc(CO)c(-n2c(C)cc(OCc3ccc(F)cc3F)c(Br)c2=O)c1`, in data set [1], the negative-log IC50 (pIC50) was 6.49.
The term inhibition in vivo denotes the drop in the measured response relative to a control, in per cent. Consider `Cc1ccc(C(=O)N(C)C)cc1-n1c(C)cc(OCc2ccc(F)cc2F)c(Br)c1=O`, for which the pIC50 with PBMC (Homo sapiens, PBMC) is 7.55; in data set [1], 8.02. Besides, the remaining at 0.75 h, 2 µM in data set [2] was 71%; in data set [4], 75%. The inhibition in vivo at 5 mg/kg in the data set on Rattus norvegicus [3] amounted to 96%. The inhibition in vivo at 60 mg/kg/day in the data set with Rattus norvegicus [5] was found to be 74%.
On to `CNC(=O)c1ccc(F)c(-n2c(C)cc(OCc3ccc(F)cc3F)c(Br)c2=O)c1`, for which the pIC50 with PBMC (Homo sapiens, PBMC) was 7.34; in data set [1], 8.07. For the same compound, in the data set on Rattus norvegicus [3], the inhibition in vivo at 5 mg/kg is 83%.
For `CNC(=O)c1ccc(C)c(-n2c(CO)cc(OCc3ccc(F)cc3F)c(Br)c2=O)c1` the same measures were 7.80, 8.40 and 1%.
The like results for `CNC(=O)c1ccc(OC)c(-n2c(C)cc(OCc3ccc(F)cc3F)c(Br)c2=O)c1` were, in that order, 6.97, 7.68 and 20%.
The term bioavailability denotes dose-corrected exposure relative to a reference, in per cent. In general, half-life refers to the time in which the quantity being followed falls by half. In general, Papp A→B refers to the apparent permeability from the apical to the basolateral side of a cell layer. The term solubility denotes the concentration that dissolves in the medium under given conditions. Take `CNC(=O)c1ccc(C)c(-n2c(C)cc(OCc3ccc(F)cc3F)c(Br)c2=O)c1` [PH-797804]: the bioavailability in data set [6] was 80.4%; in data set [7], 36.2%; in [10] it was 35.7%; in [12], 59.6%; in [16], above 100%; in data set [20], 23.2%. Also, the pIC50 in the data set on PBMC (pbmc) is 7.82 and 8.47. For the same compound, the Stability in the data set on Liver microsomes [8] is 100%; in the data set on Liver microsomes [15] it was 98% and 92%. Also, the remaining at 0.75 h, 2 µM in data set [2] is 95%; in [4], 91%. Moreover, in the data set on Rattus norvegicus [3] (5 mg/kg), the “inhibition (INH)” value was 95% and 38%. Moreover, the half-life is 2.6 h in data set [9], 11.4 h in [17] and 3.93 h in [18]. Besides, in data set [11], the apical-to-basolateral permeability (Papp A→B) at 100 µM worked out at 25 ×10⁻⁶ cm/s. The compound further had a solubility in data set [13] below 5 µg/mL. For the same compound, the Papp A→B at 1 µM in data set [14] amounted to 10 ×10⁻⁶ cm/s. Besides, the inhibition in vivo at 2 mg/kg/day in the data set on Rattus norvegicus [19] is 80%.
With `CNC(=O)c1ccc(C(=O)O)c(-n2c(C)cc(OCc3ccc(F)cc3F)c(Br)c2=O)c1`, the pIC50 was below 4.60 with PBMC (Homo sapiens, PBMC) and below 5.00 in [1].
Take `CNC(=O)c1ccc(Cl)c(-n2c(C)cc(OCc3ccc(F)cc3F)c(Br)c2=O)c1`: the inhibition in vivo at 30 mg/kg/day in the data set with Rattus norvegicus [21] was determined as 90%. Also, the pIC50 was 7.74 in the data set with PBMC (Homo sapiens, PBMC) and 8.52 in data set [1]. Also, the inhibition in vivo at 5 mg/kg in the data set with Rattus norvegicus [3] was found to be 89%.
In the case of `CNC(=O)c1cccc(-n2c(C)cc(OCc3ccc(F)cc3F)c(Br)c2=O)c1C`, the pIC50 is 6.71 in the data set on PBMC (Homo sapiens, PBMC) and 7.31 in [1]. Moreover, the remaining at 0.75 h, 2 µM in data set [2] turned out to be 91%; in data set [4] it was 89%. In addition, in the data set with Rattus norvegicus [3], the inhibition in vivo at 5 mg/kg was 61%.
Regarding `Cc1ccc(C(N)=O)cc1-n1c(C)cc(OCc2ccc(F)cc2F)c(Br)c1=O`, the pIC50 in the data set on PBMC (Homo sapiens, PBMC) was 8.60; in data set [1] it was 8.70. Besides, the remaining at 0.75 h, 2 µM in data set [2] worked out at 100%; in data set [4], 84%. Besides, the inhibition in vivo at 5 mg/kg with Rattus norvegicus [3] is 98%. For the same compound, the inhibition in vivo at 10 mg/kg/day in the data set with Rattus norvegicus [22] was determined as 87%.
`CNC(=O)c1ccc(-n2c(C)cc(OCc3ccc(F)cc3F)c(Br)c2=O)c(C)c1`: the pIC50 with PBMC (Homo sapiens, PBMC) is 6.81; in [1], 7.47. In addition, the remaining at 0.75 h, 2 µM in data set [2] turned out to be 86%; in data set [4], 93%. Also, the inhibition in vivo at 5 mg/kg in the data set on Rattus norvegicus [3] is 54%.
